Source: publication PMC12186844 (ACS Chemical Neuroscience, 2025)

Legend:
[1] = biological target: SNAP-D2SR N52^1.50A (Homo sapiens, UniProt P14416, N52A); assay: functional cAMP assay, BRET biosensor; type: cell-based
Procedure: (§1) Flp-In-CHO cells stably coexpressing the CAMYEL biosensor and DRs were plated into white 96-well CulturPlates (Revvity) and grown overnight. The cells were equilibrated in Hank’s balanced salt solution (HBSS) at 37 °C (or 25 °C when indicated) before starting the experiment. The cells were costimulated with the agonists and 10 μM forskolin for the indicated time frames when the BRET readings were captured. Coelenterazine (Nanolight Technology, AZ) was added at a final concentration of 5 μM at least 3 min prior to measurement. […] Net BRET was determined by subtraction of the vehicle control coadded with 10 μM forskolin.
(§2) Dose–response curves were fitted using the following three-parameter equation: response=bottom+top−bottom/1+10^(logEC50−log[A]) 5 where top and bottom represent the maximal and minimal asymptote of the dose response curve, [A] is the molar concentration of the agonist, and EC50 is the molar concentration of the agonist required to give a response half-way between bottom and top.

[2] = biological target: SNAP-D2SR F353^6.44A (Homo sapiens, UniProt P14416, F382A); assay: functional cAMP assay, BRET biosensor; type: cell-based
Procedure: as §1, §2

[3] = biological target: T1, D2LR (Homo sapiens, UniProt P14416); assay: ERK1/2 phosphorylation assay; type: cell-based; settings: pERK1/2
T1 sequence (P14416 whole entry, the tested form may be a part): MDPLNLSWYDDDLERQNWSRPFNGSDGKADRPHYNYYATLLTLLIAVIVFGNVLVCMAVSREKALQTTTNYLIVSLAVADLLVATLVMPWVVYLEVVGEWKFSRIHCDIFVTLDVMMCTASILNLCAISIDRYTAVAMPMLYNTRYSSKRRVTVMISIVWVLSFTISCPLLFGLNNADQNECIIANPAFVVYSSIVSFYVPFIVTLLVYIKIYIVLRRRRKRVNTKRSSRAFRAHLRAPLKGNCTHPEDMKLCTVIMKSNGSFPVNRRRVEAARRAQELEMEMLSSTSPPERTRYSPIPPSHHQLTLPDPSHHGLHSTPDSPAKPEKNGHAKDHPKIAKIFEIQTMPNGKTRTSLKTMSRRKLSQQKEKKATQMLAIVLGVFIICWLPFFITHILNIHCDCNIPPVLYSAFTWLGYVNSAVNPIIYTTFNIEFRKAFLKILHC
Procedure: Flp-In-CHO cells stably expressing the D2LR were seeded into 96-well plates at a density of 50,000 cells/well. After 5 h, cells were washed with phosphate-buffered saline (PBS) and incubated in serum-free DMEM overnight before assaying. […] Stimulation of the cells was terminated by removing the medium followed by the addition of 100 μL of SureFire lysis buffer (PerkinElmer) to each well. The plate was shaken for 5 min at RT before 5 μL of the lysates was transferred to a white 384-well ProxiPlate (PerkinElmer). Then, 8 μL of a 240:1440:7:7 mixture of Surefire activation buffer:Surefire reaction buffer:AlphaScreen acceptor beads:AlphaScreen donor beads was added to the samples and incubated in the dark at 37 °C for 1.5 h. Plates were read using a Fusion plate reader.

[4] = biological target: SNAP-D2SR L76^2.46A (Homo sapiens, UniProt P14416, L76A); assay: cell membrane [3H]spiperone assay
Sequence of SNAP-D2SR L76^2.46A (P14416 1-414 isoform P14416-2 L76A): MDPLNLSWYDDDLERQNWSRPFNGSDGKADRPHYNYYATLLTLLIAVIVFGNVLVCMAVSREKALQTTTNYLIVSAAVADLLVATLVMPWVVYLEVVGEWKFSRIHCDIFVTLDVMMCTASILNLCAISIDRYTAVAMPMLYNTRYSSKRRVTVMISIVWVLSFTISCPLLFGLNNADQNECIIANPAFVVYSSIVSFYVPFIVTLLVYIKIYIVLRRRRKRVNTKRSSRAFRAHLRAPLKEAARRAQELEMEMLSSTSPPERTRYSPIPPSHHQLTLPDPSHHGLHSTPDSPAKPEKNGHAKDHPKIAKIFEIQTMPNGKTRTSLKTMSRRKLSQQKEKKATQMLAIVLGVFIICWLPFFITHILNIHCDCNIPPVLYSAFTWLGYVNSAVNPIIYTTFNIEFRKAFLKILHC
Procedure: (§3) Flp-In-CHO cells stably expressing the wild-type or mutant DRs were grown to 90% confluence in 175 cm^2 cell culture flasks. The cells were harvested in PBS containing 2 mM EDTA and centrifuged at 300g for 3 min. The resulting pellet was resuspended in ice-cold assay buffer (20 mM HEPES, 100 mM NaCl, 6 mM MgCl2, 1 mM EGTA, and 1 mM EDTA, pH 7.4), and the centrifugation step was repeated. The intact cell pellet was then resuspended in assay buffer and homogenized using a Polytron homogenizer. After centrifugation (1000g, 10 min), the pellet was discarded, and the supernatant was recentrifuged at 30,000g for 1 h at 4 °C using a Sorvall Evolution RC ultracentrifuge (Thermo Scientific). The resulting pellet was resuspended in assay buffer and stored in 250 μL aliquots at −80 °C. Membrane protein concentration was determined using a Pierce’s BCA protein assay kit (Thermo Fisher, Melbourne).
(§4) [^3H]­Spiperone binding experiments using cell membranes were conducted in a 200 μL reaction volume in assay buffer (20 mM HEPES, 100 mM NaCl, 6 mM MgCl2, 1 mM EGTA, and 1 mM EDTA, pH 7.4) containing 100 μM GppNHp and 0.1% ascorbic acid in 96-well plates. […] In all cases, nonspecific binding was determined in the presence of 10 μM haloperidol. […] Filter bound radioactivity was detected as a chemiluminescence after the addition of MicroScint-20 (Revvity) in a MicroBeta plate counter (Revvity). […]

[5] = biological target: T2, SNAP-D2SR I73^2.43A (Homo sapiens, UniProt P14416, I73A); assay: cell membrane [3H]spiperone assay
T2 sequence (P14416 1-414 isoform P14416-2 I73A): as the sequence (P14416 1-414 isoform P14416-2 L76A) above, with I73A, A76L counted along it
Procedure: as §3, §4

[6] = biological target: SNAP-D2SR D80^2.50A (Homo sapiens, UniProt P14416, D80A); assay: functional cAMP assay, BRET biosensor; type: cell-based
Sequence of SNAP-D2SR D80^2.50A (P14416 1-414 isoform P14416-2 D80A): as the sequence (P14416 1-414 isoform P14416-2 L76A) above, with A76L, D80A counted along it
Procedure: as §1, §2

[7] = biological target: T2, SNAP-D2SR I73^2.43A; assay: functional cAMP assay, BRET biosensor; type: cell-based; design: expressed in transfected cells
Procedure: as §1, §2

[8] = biological target: T1, D2LR; assay: β-arrestin-2 recruitment BRET assay; type: cell-based
Procedure: Flp-In-CHO cells were seeded at a density of 2,000,000 cells per 10 cm dish and were transfected the following day using polyethylenimine as a transfection reagent. To assess β-arrestin-2 recruitment to the D2LR, the cells were transfected with 1 μg of Rluc8-tagged D2LR, 4 μg of YFP-β-arrestin-2, and 2 μg of GRK2. Twenty-four hours after transfection, the cells were plated into 96-well CulturPlates (PerkinElmer) and grown overnight. […] The cells were incubated with coelenterazine (Promega) at a final concentration of 5 μM for 5 min followed by stimulation with the agonists for an additional 5 min before the BRET readings were captured.

[9] = biological target: T1, D2LR; assay: inhibition of forskolin-stimulated cAMP production, BRET biosensor; type: cell-based;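 further: Flp-In-CHO cells stably expressing CAMYEL cAMP BRET sensor, agonist plus 10 µM forskolin, net BRET after forskolin-vehicle subtraction, parameters from complete operational model of allosterism and agonism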
Procedure: as §1, §2

[10] = biological target: T3, D2R (Homo sapiens, UniProt P14416); assay: D2R internalization whole cell ELISA; type: cell-based
T3 construct: expressed in transfected cells; host or cells: CHO cells stably overexpressing GRK2, transient
T3 sequence (P14416 whole entry): as the sequence (P14416 whole entry, the tested form may be a part) above

[11] = biological target: SNAP-D2SR E95^2.65A (Homo sapiens, UniProt P14416, E95A); assay: functional cAMP assay, BRET biosensor; type: cell-based
Sequence of SNAP-D2SR E95^2.65A (P14416 1-414 isoform P14416-2 E95A): as the sequence (P14416 1-414 isoform P14416-2 L76A) above, with A76L, E95A counted along it
Procedure: Flp-In-CHO cells stably coexpressing the CAMYEL biosensor and DRs were plated into white 96-well CulturPlates (Revvity) and grown overnight. The cells were equilibrated in Hank’s balanced salt solution (HBSS) at 37 °C (or 25 °C when indicated) before starting the experiment. The cells were costimulated with the agonists and 10 μM forskolin for the indicated time frames when the BRET readings were captured. Coelenterazine (Nanolight Technology, AZ) was added at a final concentration of 5 μM at least 3 min prior to measurement. […] Net BRET was determined by subtraction of the vehicle control coadded with 10 μM forskolin. For phenoxybenzamine alkylation experiments, the cells were treated with 0.1, 0.3, or 1 μM phenoxybenzamine (Sigma-Aldrich) diluted in HBSS and equilibrated at 37 °C for 30 min prior to the commencement of the assay.
as §2

[12] = read-out: D2 PAM2 KB (converted)
[13] = with S-(3)-PPP, listed as D2 PAM

Sequence of SNAP-D2SR F353^6.44A (P14416 1-414 isoform P14416-2 F353A): as the sequence (P14416 1-414 isoform P14416-2 L76A) above, with A76L, F353A counted along it
Sequence of SNAP-D2SR N52^1.50A (P14416 1-414 isoform P14416-2 N52A): as the sequence (P14416 1-414 isoform P14416-2 L76A) above, with N52A, A76L counted along it

D2 PAM2 log τ [1]: 0.23 ± 0.07
D2 PAM2 pKB [1]: 4.89 ± 0.21
D2 PAM2 τ [1]: 1.69
Kb [1, 12]: 12.8 µM
D2 PAM2 log αβ ([1]; with DA): 1.18 ± 0.28
D2 PAM2 αβ ([1]; with DA): 15
D2 PAM2 log τ [2]: –1.06 ± 0.21
D2 PAM2 pKB [2]: 5.13 ± 0.16
D2 PAM2 τ [2]: 0.09
Kb [2, 12]: 7.4 µM
D2 PAM2 log αβ ([2]; with DA): 1.06 ± 0.21
D2 PAM2 αβ ([2]; with DA): 11
pKB [3]: 5.36 ± 0.13
LogτB ([3]; intrinsic efficacy): 0.18 ± 0.03
Logαβ ([3]; with dopamine): 1.37 ± 0.12
fold shift + 10 μM PAM ([4]; shift of DA IC50): 3.5 fold
ΔpIC50 + 10 μM PAM ([4]; shift of DA pIC50): 0.55 ± 0.07
fold shift + 10 μM PAM ([5]; shift of DA IC50): 1.5 fold
ΔpIC50 + 10 μM PAM ([5]; shift of DA pIC50): 0.17 ± 0.09
D2 PAM2 log τ [6]: –0.78 ± 0.25
D2 PAM2 pKB [6]: 4.82 ± 0.18
D2 PAM2 τ [6]: 0.17
D2 PAM2 log αβ ([6]; with DA): 0.96 ± 0.25
D2 PAM2 αβ ([6]; with DA): 9.0
D2 PAM2 log τ [7]: –1.11 ± 0.16
D2 PAM2 pKB [7]: 5.24 ± 0.16
D2 PAM2 τ [7]: 0.08
fold decrease in cooperativity with DA ([7]; cAMP): 2.8 fold
Kb [7, 12]: 6 µM
D2 PAM2 log αβ ([7]; with DA): 0.79 ± 0.07
D2 PAM2 αβ ([7]; with DA): 6.1
pKB [8]: 5.18 ± 0.12
LogτB ([8]; intrinsic efficacy): -1.30 ± 0.16
Logαβ ([8]; with dopamine): 1.52 ± 0.12
agonism, fold lower than that of aripiprazole ([9]; D2 PAM2 alone, high D2R expression levels): approximately 2 fold
pKB ([9]; cAMP): 5.37 ± 0.04
LogτB ([9]; cAMP, intrinsic efficacy): -0.96 ± 0.04
Logαβ ([9]; cAMP, with dopamine): 1.41 ± 0.04
Kb ([9]; operational model of allostery, with DA): 5.5 µM
Logαβ ([9]; with S-(3)-PPP): 1.46 ± 0.16
Logβ ([9]; with S-(3)-PPP): 1.06
β ([9]; with S-(3)-PPP): 11.5
αβ [9, 13]: 28
β [9, 13]: 11
Logαβ ([9]; with apomorphine): 1.21 ± 0.13
Logβ ([9]; with apomorphine): 0.16
αβ ([9]; with apomorphine): 16
β ([9]; with apomorphine): 1.4
Logαβ ([9]; with aripiprazole): 1.61 ± 0.14
Logβ ([9]; with aripiprazole): 1.18
αβ ([9]; with aripiprazole): 41
β ([9]; with aripiprazole): 15
Logαβ ([9]; with bromocriptine): 0.76 ± 0.13
Logβ ([9]; with bromocriptine): 0.49
αβ ([9]; with bromocriptine): 5.8
β ([9]; with bromocriptine): 3.1
Logαβ ([9]; with dopamine): 1.35 ± 0.10
Logβ ([9]; with dopamine): 0.02
αβ ([9]; with dopamine): 22
β ([9]; with dopamine): 1
β ([9]; with dopamine, listed as D2 PAM): 1.0
Logαβ ([9]; with lisuride): 0.66 ± 0.06
Logβ ([9]; with lisuride): 0.11
αβ ([9]; with lisuride): 4.6
β ([9]; with lisuride): 1.3
Logαβ ([9]; with pergolide): 1.50 ± 0.15
Logβ ([9]; with pergolide): 0.26
αβ ([9]; with pergolide): 32
β ([9]; with pergolide): 1.8
Logαβ ([9]; with pramipexole): 1.37 ± 0.12
Logβ ([9]; with pramipexole): 0.16
αβ ([9]; with pramipexole): 23
β ([9]; with pramipexole): 1.4
Logαβ ([9]; with ropirinole): 1.67 ± 0.12
Logβ ([9]; with ropirinole): 0.53
αβ ([9]; with ropirinole): 47
β ([9]; with ropirinole): 3.4
Logαβ ([9]; with rotigotine): 1.17 ± 0.09
Logβ ([9]; with rotigotine): -0.20
αβ ([9]; with rotigotine): 15
β ([9]; with rotigotine): 0.6
pKB [10]: 5.30 ± 0.29
LogτB ([10]; intrinsic efficacy): -2.20 ± 0.23
Logαβ ([10]; with dopamine): 0.99 ± 0.21
Kb [11]: 3.2 µM
Logτ [11]: -0.46 ± 0.07
pKB [11]: 5.49 ± 0.12
τ [11]: 0.35
Logαβ ([11]; with DA): 1.07 ± 0.10
αβ ([11]; with DA): 11.7
Compound: COc1cc(CO)c(F)cc1C(=O)n1ccc2c(F)cccc21 [D2 PAM2, [5-fluoro-4-(hydroxymethyl)-2-methoxyphenyl]-(4-fluoro-1H-indol-1-yl)methanone]
